Laboratory results as given in patent EP0047459A2, “Fluorescent reagent and immunofluorescent determination method” (INTERNATIONAL DIAGNOSTIC TECHNOLOGY, INC., priority 1980, dated 1982).
Read-outs that look alike come from different tables or passages of the source.

Assay: Comparison of water solubilities of haptens, modified haptens and gentamicin reaction products
Format: physicochemical
Text: In der Tabelle III werden die Wasserlöslichkeiten der Haptene Phenobarbital und Diphenylhydantoin in unveränderter Form, in modifizierter Form (carboxyliert bzw. aminiert) und in der sogenannten konjugierten Form, nämlich als Umsetzungsprodukt mit Gentamicin gegenübergestellt. Hieraus ergibt sich, daß die Haptene in unveränderter und in modifizierter Form hydrophob sind (Die Unlöslichkeit in Wasser ist ein Maß für die Hydrophobie einer Verbindung). Mit steigender Unlöslichkeit der Verbindungen in Wasser steigt die Hydrophobie und die Wahrscheinlichkeit, daß sie an die Oberfläche gebunden werden, wobei durch die unspezifischen Bindungen große Ungenauigkeiten in der Immunofluoreszenz-Bestimmungsmethode verursacht werden. Wie aus der Tabelle III weiterhin ersichtlich, erhält man ein lösliches, d.h. hydrophiles Produkt, wenn man ein hydrophobes Hapten wie Phenobarbital oder Diphenylhydantoin mit einer hydrophilen Verbindung wie Gentamicin verbindet. Derartige Produkte werden nicht als solche an die feste Oberfläche gebunden.

For O=C1NC(=O)C(c2ccccc2)(c2ccccc2)N1 [Diphenyl-hydantoin, Diphenylhydantoin], which Wasserlöslichkeiten is on record?
Its Wasserlöslichkeiten is “unlöslich”.

Which Wasserlöslichkeiten (in water, insolubility is taken as a measure of hydrophobicity) does the source give for CCC1(c2ccccc2)C(=O)NC(=O)NC1=O [Phenobar-bital, Phenobarbital] here?
The Wasserlöslichkeiten was “unlöslich”.
